≈ marks a conversion by molar mass, not a printed value. Blank lines part the entries; values can stand above or below the molecule they belong to.
Assays:
PC-3 cell line = test: solid tumor cell growth inhibition, MTT; assay type: cell-based; conditions: Homo sapiens; for IC50: PC-3, 72 h; for inhibition at 16 µg/mL: PC-3, 16 μg/mL compound, 72 h, read-out: IR (cell proliferation inhibition rate)
Method in brief: (§1)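 Relative viable-cell counts come from MTT after 72 h of compound treatment; wells held 4000 cells in DMEM high glucose plus 10% FBS, incubated at 37° C, 5% CO2.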

CaES-17 cell line = test: solid tumor cell growth inhibition, MTT; assay type: cell-based; conditions: Homo sapiens, CaEs17; for inhibition at 16 µg/mL: CaES-17, 16 μg/mL compound, 72 h, read-out: IR (cell proliferation inhibition rate); for IC50: CaES-17, 72 h
Method in brief: as §1

PANC-1 cell line = test: solid tumor cell growth inhibition, MTT; assay type: cell-based; conditions: Homo sapiens; for IC50: PANC-1, 72 h; for inhibition at 16 µg/mL: PANC-1, 16 μg/mL compound, 72 h, read-out: IR (cell proliferation inhibition rate)
Method in brief: as §1

A549 cell line = test: solid tumor cell growth inhibition, MTT; assay type: cell-based; conditions: Homo sapiens; for IC50: A549, 72 h; for inhibition at 16 µg/mL: A549, 16 μg/mL compound, 72 h, read-out: IR (cell proliferation inhibition rate)
Method in brief: as §1

RKO cell line = test: solid tumor cell growth inhibition, MTT; assay type: cell-based; conditions: Homo sapiens, 72 h; for inhibition at 16 µg/mL: 16 μg/mL compound, read-out: IR (cell proliferation inhibition rate)
Method in brief: as §1

Becap37 cell line = test: solid tumor cell growth inhibition, MTT; assay type: cell-based; conditions: Homo sapiens; for inhibition at 16 µg/mL: Becap37, 16 μg/mL compound, 72 h, read-out: IR (cell proliferation inhibition rate); for IC50: Becap37, 72 h
Method in brief: as §1

Hela cell line = test: solid tumor cell growth inhibition, MTT; assay type: cell-based; conditions: Homo sapiens, 72 h; for IC50: HeLa; for inhibition at 16 µg/mL: Hela, 16 μg/mL compound, read-out: IR (cell proliferation inhibition rate)
Method in brief: as §1

SK-OV-3 cell line = test: solid tumor cell growth inhibition, MTT; assay type: cell-based; conditions: Homo sapiens; for IC50: SK-OV-3, 72 h; for inhibition at 16 µg/mL: SK-OV-3, 16 μg/mL compound, 72 h, read-out: IR (cell proliferation inhibition rate)
Method in brief: as §1

MGC 803 cell line = test: solid tumor cell growth inhibition, MTT; assay type: cell-based; conditions: Homo sapiens; for inhibition at 16 µg/mL: MGC 803, 16 μg/mL compound, 72 h, read-out: IR (cell proliferation inhibition rate); for IC50: MGC 803, 72 h
Method in brief: as §1

U87 MG cell line = test: solid tumor cell growth inhibition, MTT; assay type: cell-based; conditions: Homo sapiens, U-87 MG, 72 h; for inhibition at 16 µg/mL: 16 μg/mL compound, read-out: IR (cell proliferation inhibition rate)
Method in brief: as §1

Hep-2 cell line = test: solid tumor cell growth inhibition, MTT; assay type: cell-based; conditions: Homo sapiens; for IC50: HEp-2, 72 h; for inhibition at 16 µg/mL: Hep-2, 16 μg/mL compound, 72 h, read-out: IR (cell proliferation inhibition rate)
Method in brief: as §1

MG-63 cell line = test: solid tumor cell growth inhibition, MTT; assay type: cell-based; conditions: Homo sapiens; for IC50: MG-63, 72 h; for inhibition at 16 µg/mL: MG-63, 16 μg/mL compound, 72 h, read-out: IR (cell proliferation inhibition rate)
Method in brief: as §1

CNE cell line = test: solid tumor cell growth inhibition, MTT; assay type: cell-based; conditions: Homo sapiens, 72 h; for inhibition at 16 µg/mL: 16 μg/mL compound, read-out: IR (cell proliferation inhibition rate)
Method in brief: as §1

RPMI8226 cell line = test: multiple myeloma cell growth inhibition, MTT; assay type: cell-based; conditions: Homo sapiens, RPMI-8226; for inhibition at 16 µg/mL: RPMI8226, 16 μg/mL compound, 72 h, read-out: IR (cell proliferation inhibition rate); for IC50: RPMI8226, 72 h
Method in brief: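 Viability was measured by MTT after a 72 h compound exposure (37° C, 5% CO2) of RPMI8226 myeloma cells seeded at 6000 per well in 1640 medium with 10% fetal bovine serum. Growth inhibition was expressed relative to untreated cells, taken as 0%.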

H9 cell line = test: leukemia cell growth inhibition, MTT; assay type: cell-based; conditions: Homo sapiens; for IC50: H9, 72 h; for inhibition at 16 µg/mL: H9, 16 μg/mL compound, 72 h, read-out: IR (cell proliferation inhibition rate)
Method in brief: (§2)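 Proliferation inhibition was read by MTT after 72 h of compound exposure (37 °C, 5% CO2), untreated wells defining 0%. Each well held 6000 cells in 1640 medium plus 10% fetal bovine serum, with test compounds at varied concentrations.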

K562/adr cell line = test: leukemia cell growth inhibition, MTT; assay type: cell-based; conditions: Homo sapiens, 72 h; for IC50: K562/Adr; for inhibition at 16 µg/mL: K562/adr, 16 μg/mL compound, read-out: IR (cell proliferation inhibition rate)
Method in brief: as §2

Jurkat cell line = test: leukemia cell growth inhibition, MTT; assay type: cell-based; conditions: Homo sapiens, 72 h; for inhibition at 16 µg/mL: 16 μg/mL compound, read-out: IR (cell proliferation inhibition rate)
Method in brief: as §2

Kasumi-1 cell line = test: leukemia cell growth inhibition, MTT; assay type: cell-based; conditions: Homo sapiens; for inhibition at 16 µg/mL: Kasumi-1, 16 μg/mL compound, 72 h, read-out: IR (cell proliferation inhibition rate); for IC50: Kasumi-1, 72 h
Method in brief: as §2

NB4 cell line = test: leukemia cell growth inhibition, MTT; assay type: cell-based; conditions: Homo sapiens, NB-4; for inhibition at 16 µg/mL: NB4, 16 μg/mL compound, 72 h, read-out: IR (cell proliferation inhibition rate); for IC50: NB4, 72 h
Method in brief: as §2

Hep G2 cell line = test: solid tumor cell growth inhibition, MTT; assay type: cell-based, human; conditions: for inhibition at 16 µg/mL / IC50: Homo sapiens; for inhibition at 16 µg/mL: HepG2, 72 h, Hep G2, 16 μg/mL compound, 72 h, read-out: IR (cell proliferation inhibition rate); for IC50: HepG2, Hep G2, 72 h
Method in brief: as §1

IC50 (PC-3 cell line): > 16 µg/mL
IC50 (CaES-17 cell line): > 16 µg/mL
IC50 (PANC-1 cell line): > 16 µg/mL
IC50 (A549 cell line): > 16 µg/mL
IC50 (RKO cell line): > 16 µg/mL
IC50 (Becap37 cell line): > 16 µg/mL
IC50 (Hela cell line): > 16 µg/mL
IC50 (SK-OV-3 cell line): > 16 µg/mL
IC50 (MGC 803 cell line): > 16 µg/mL
IC50 (U87 MG cell line): > 16 µg/mL
IC50 (Hep-2 cell line): > 16 µg/mL
IC50 (MG-63 cell line): > 16 µg/mL
IC50 (CNE cell line): > 16 µg/mL
IC50 (RPMI8226 cell line): 8.58 µg/mL (≈ 13.4 µM)
IC50 (H9 cell line): > 16 µg/mL
IC50 (K562/adr cell line): 8.79 µg/mL (≈ 13.8 µM)
IC50 (Jurkat cell line): 18.4 µg/mL (≈ 28.8 µM)
IC50 (Kasumi-1 cell line): > 16 µg/mL
IC50 (NB4 cell line): 8.95 µg/mL (≈ 14 µM)
IC50 (Hep G2 cell line): > 16 µg/mL
SMILES: CN1CCN(CCCNC(=O)C2C[C@]3(C)[C@H]4CC=C5[C@@H]6CC(C)(C)CC[C@]6(C(=O)O)CC[C@@]5(C)[C@]4(C)CC[C@H]3C(C)(C)C2=O)CC1 (stereo partly drawn) [BS-OA-110]
inhibition at 16 µg/mL (PC-3 cell line): -11.4%
inhibition at 16 µg/mL (CaES-17 cell line): -1%
inhibition at 16 µg/mL (PANC-1 cell line): 13.1%
inhibition at 16 µg/mL (A549 cell line): 4%
inhibition at 16 µg/mL (RKO cell line): -19.1%
inhibition at 16 µg/mL (Becap37 cell line): 22.2%
inhibition at 16 µg/mL (Hela cell line): 26.1%
inhibition at 16 µg/mL (SK-OV-3 cell line): -20.1%
inhibition at 16 µg/mL (MGC 803 cell line): 2.9%
inhibition at 16 µg/mL (U87 MG cell line): -12.6%
inhibition at 16 µg/mL (Hep-2 cell line): -6.3%
inhibition at 16 µg/mL (MG-63 cell line): 29.5%
inhibition at 16 µg/mL (CNE cell line): 30.1%
inhibition at 16 µg/mL (RPMI8226 cell line): 96.7%
inhibition at 16 µg/mL (H9 cell line): 37.9%
inhibition at 16 µg/mL (K562/adr cell line): 81.9%
inhibition at 16 µg/mL (Jurkat cell line): 45.5%
inhibition at 16 µg/mL (Kasumi-1 cell line): 41.7%
inhibition at 16 µg/mL (NB4 cell line): 78.8%
inhibition at 16 µg/mL (Hep G2 cell line): 29.5%

IC50 (PC-3 cell line): > 16 µg/mL
IC50 (CaES-17 cell line): > 16 µg/mL
IC50 (PANC-1 cell line): > 16 µg/mL
IC50 (A549 cell line): > 16 µg/mL
IC50 (RKO cell line): > 16 µg/mL
IC50 (Becap37 cell line): > 16 µg/mL
IC50 (Hela cell line): > 16 µg/mL
IC50 (SK-OV-3 cell line): > 16 µg/mL
IC50 (MGC 803 cell line): > 16 µg/mL
IC50 (U87 MG cell line): > 16 µg/mL
IC50 (Hep-2 cell line): > 16 µg/mL
IC50 (MG-63 cell line): > 16 µg/mL
IC50 (CNE cell line): > 16 µg/mL
IC50 (RPMI8226 cell line): > 16 µg/mL
IC50 (H9 cell line): > 16 µg/mL
IC50 (K562/adr cell line): > 16 µg/mL
IC50 (Jurkat cell line): > 16 µg/mL
IC50 (Kasumi-1 cell line): > 16 µg/mL
IC50 (NB4 cell line): > 16 µg/mL
IC50 (Hep G2 cell line): > 16 µg/mL
SMILES: CC1(C)CC[C@]2(C(=O)O)CC[C@]3(C)C(=CC[C@@H]4[C@@]5(C)CC[C@H](O)C(C)(C)[C@@H]5CC[C@]43C)[C@@H]2C1 [OA, Oleanolic acid]
inhibition at 16 µg/mL (PC-3 cell line): 29.1%
inhibition at 16 µg/mL (CaES-17 cell line): 27.4%
inhibition at 16 µg/mL (PANC-1 cell line): 8.5%
inhibition at 16 µg/mL (A549 cell line): 5%
inhibition at 16 µg/mL (RKO cell line): 14.3%
inhibition at 16 µg/mL (Becap37 cell line): 23.4%
inhibition at 16 µg/mL (Hela cell line): 22.9%
inhibition at 16 µg/mL (SK-OV-3 cell line): 8.3%
inhibition at 16 µg/mL (MGC 803 cell line): 19.7%
inhibition at 16 µg/mL (U87 MG cell line): 21.8%
inhibition at 16 µg/mL (Hep-2 cell line): 9.8%
inhibition at 16 µg/mL (MG-63 cell line): 29.2%
inhibition at 16 µg/mL (CNE cell line): 33.9%
inhibition at 16 µg/mL (RPMI8226 cell line): 2.2%
inhibition at 16 µg/mL (H9 cell line): 22.8%
inhibition at 16 µg/mL (K562/adr cell line): 26.5%
inhibition at 16 µg/mL (Jurkat cell line): 9.4%
inhibition at 16 µg/mL (Kasumi-1 cell line): 17.2%
inhibition at 16 µg/mL (NB4 cell line): 17.2%
proliferation inhibition effect (in words) (Hep G2 cell line; Hep G2): does not exhibit obvious proliferation inhibition effect
inhibition at 16 µg/mL (Hep G2 cell line): -18.5%
